Source: US20240277712A1, “TREATMENT AND PREVENTION OF DEVELOPMENTAL DISORDERS AND MENTAL DISEASES” (KYUSHU UNIVERSITY, NATIONAL UNIVERSITY CORPORATION, priority 2020, published 2024)
“Also recorded” adds a separate entry of the source. Structures can show the parent of a compound that is named as a salt.

What was measured:
[1] = test system: MECP2-deficient neurons; assay: Morphological analysis of iPS cell-derived neurons (Neurolucida tracing, Scholl analysis); type: cell-based, human; details: 3TC 10 μM in combination with d4T 1 μM, NVP 400 nM
Description: Specifically, differentiated nervous system cells derived from normal human iPS cells and iPS cells obtained from patients suffered from Rett syndrome (hereinafter referred to as MECP2-deficient or MECP2-KO because the MECP2 gene was inactivated) were cultured and differentiated into cortical neurons. […] For neuronal maturation, the cells were kept in the same media but the growth factors were withdrawn.
The differentiated nervous system cells were maintained for 8 weeks after FGF withdraw.
(§2) Next, 3TC and d4T were added to the obtained differentiated neural cell culture. The reverse-transcriptase inhibitors for cultured cells were prepared for as follows: Lamivudine (3TC, Sigma-Aldrich) was prepared in dimethyl sulfoxide (DMSO, Sigma Aldrich) and the preparation was added to media so that the final concentration of 3TC was adjusted into 10 μM. […]
Cultured NPCs were transduced with a lentivirus backbone containing Synapsin 1 (SYN) promoter upstream of an EGFP reporter (Nageshappa et al., Mol Psychiatry 21, 178-188 (2016)). […] 11 (MBF Bioscience, Williston, VT) was used to quantify the morphology of the neurons and then to obtain the sum of length of all neurites and dendrites per traced neuron. […] Neuronal complexity was determined by recording the number of intersections within each ring.

[2] = test system: MECP2-deficient neurons; assay: Quantification of co-localized synaptic puncta (SYN1/PSD-95) on iPS cell-derived neurons; type: cell-based, human; details: vs neurons treated without reverse transcriptase inhibitors, NVP 400 nM
Description: Specifically, differentiated nervous system cells derived from normal human iPS cells and iPS cells obtained from patients suffered from Rett syndrome (hereinafter referred to as MECP2-deficient or MECP2-KO because the MECP2 gene was inactivated) were cultured and differentiated into cortical neurons. For differentiation into neurospheres (neural stem cell clusters), NPCs were dissociated from the plate using StemPro Accutase (Life Technologies), and 3-5 million cells were then cultured in suspension on 6-well plates in a shaker incubator at 95 r.p.m. at 37° C. for 48 hours in neural culture (NG) media (DMEM/F12, 1% Glutamax (Life Technologies), 1% N2 Neuroplex (Gemini Bio-products), 2% Gem21 NeuroPlex (Gemini Bio-products), 1% penicillin-streptomycin) supplemented with bFGF (basic Fibroblast Growth Factor, R&D Systems). […]
Quantification of synaptic spots was performed as follows.
Five- to six-week-old neurons were fixed and stained for the following markers: SYN1, postsynaptic density protein 95 (PSD-95), and dendritic marker (MAP2). A fluorescence microscope (Z1 Axio Observer Apotome Zeiss) was used to image the slides by compiling Z stack images taken from changing focus distances. Co-localized SYN1 (presynaptic) and PSD-95 (postsynaptic) were quantified using the compiled Z stack image. […]

[3] = test system: MECP2-deficient spheroids; assay: Multi-electrode array (MEA) neural network activity of spheroids; type: cell-based, human; details: MEA after 4 weeks, chronic treatment
Description: Next, 3TC and d4T were added to the obtained differentiated neural cell culture. The reverse-transcriptase inhibitors for cultured cells were prepared for as follows: Lamivudine (3TC, Sigma-Aldrich) was prepared in dimethyl sulfoxide (DMSO, Sigma Aldrich) and the preparation was added to media so that the final concentration of 3TC was adjusted into 10 μM. Stavudine (d4T, Sigma-Aldrich) was suspended in water and a final concentration of 1 μM d4T was used in combination with 3TC. […] Control cells (CTRL) contained 10 pjM DMSO as a vehicle control.
The NPCs used to generate spheroids were chronically treated under their respective conditions and plated on multi-electrode array (MEA) planes to measure neural network activity. MEA plates were recorded weekly and analysis of spontaneous neural activity was performed after 4 weeks.
Multi-electrode array (MEA) was performed as follows.
Twelve-well MEA plates (Axion Biosystems) were coated with 100 μg/mL poly-L-ornithine (Sigma-Aldrich) and 5 μg/mL laminin (Life Technologies). Neurospheres generated from NPCs were placed in the center of the MEA wells and the electrodes were fully covered. Neurospheres were plated in NG media supplemented with 1% FBS. […] Media was changed twice a week and recordings were measured one day after the media was changed. […]

[4] = test system: MECP2-deficient organoids; assay: Measurement of cortical organoid diameter; type: cell-based, human; details: after 56 days of differentiation
Description: The cultured iPS cells were dissociated from the plate using a 1:1 Dulbecco's phosphate-buffered saline (DPBS, Fisher Scientific) and StemPro Accutase solution, transferred to 6-well plates, and kept in suspension. Neural induction media consisted of DMEM/F12, 1% Glutamax, 1% N2 Neuroplex, 1% non-essential amino acids (Gibco), 1% penicillin-streptomycin, 1 μM Dorsomorphin (R&D Systems), and 10 μM SB431542 (SB, Stemgent) Neural proliferation media consisted of Neurobasal media (Life Technologies), 2% Gem21 Neuroplex, 1% non-essential amino acids, 1% Glutamax, 20 ng/mL epidermal growth factor (EGF, Peprotech), and 20 ng/mL bFGF. For neuronal maturation, the cells were kept in the same media but the growth factors were withdrawn. Organoid results are combined from four separate batches of differentiation.
as §2
Cortical organoids were imaged on an Evos FL Imagine System (ThermoFisher) at 4× magnification. The images were uploaded to Image J and the diameter of each organoid was determined by the program's length measurement function.

[5] = molecular target: L1 reverse transcriptase (Homo sapiens, UniProt O00370); details: Dai et al., BMC Biochemistry 2011, 12:18; cited from earlier work
Sequence of L1 reverse transcriptase (O00370 whole entry, looked up): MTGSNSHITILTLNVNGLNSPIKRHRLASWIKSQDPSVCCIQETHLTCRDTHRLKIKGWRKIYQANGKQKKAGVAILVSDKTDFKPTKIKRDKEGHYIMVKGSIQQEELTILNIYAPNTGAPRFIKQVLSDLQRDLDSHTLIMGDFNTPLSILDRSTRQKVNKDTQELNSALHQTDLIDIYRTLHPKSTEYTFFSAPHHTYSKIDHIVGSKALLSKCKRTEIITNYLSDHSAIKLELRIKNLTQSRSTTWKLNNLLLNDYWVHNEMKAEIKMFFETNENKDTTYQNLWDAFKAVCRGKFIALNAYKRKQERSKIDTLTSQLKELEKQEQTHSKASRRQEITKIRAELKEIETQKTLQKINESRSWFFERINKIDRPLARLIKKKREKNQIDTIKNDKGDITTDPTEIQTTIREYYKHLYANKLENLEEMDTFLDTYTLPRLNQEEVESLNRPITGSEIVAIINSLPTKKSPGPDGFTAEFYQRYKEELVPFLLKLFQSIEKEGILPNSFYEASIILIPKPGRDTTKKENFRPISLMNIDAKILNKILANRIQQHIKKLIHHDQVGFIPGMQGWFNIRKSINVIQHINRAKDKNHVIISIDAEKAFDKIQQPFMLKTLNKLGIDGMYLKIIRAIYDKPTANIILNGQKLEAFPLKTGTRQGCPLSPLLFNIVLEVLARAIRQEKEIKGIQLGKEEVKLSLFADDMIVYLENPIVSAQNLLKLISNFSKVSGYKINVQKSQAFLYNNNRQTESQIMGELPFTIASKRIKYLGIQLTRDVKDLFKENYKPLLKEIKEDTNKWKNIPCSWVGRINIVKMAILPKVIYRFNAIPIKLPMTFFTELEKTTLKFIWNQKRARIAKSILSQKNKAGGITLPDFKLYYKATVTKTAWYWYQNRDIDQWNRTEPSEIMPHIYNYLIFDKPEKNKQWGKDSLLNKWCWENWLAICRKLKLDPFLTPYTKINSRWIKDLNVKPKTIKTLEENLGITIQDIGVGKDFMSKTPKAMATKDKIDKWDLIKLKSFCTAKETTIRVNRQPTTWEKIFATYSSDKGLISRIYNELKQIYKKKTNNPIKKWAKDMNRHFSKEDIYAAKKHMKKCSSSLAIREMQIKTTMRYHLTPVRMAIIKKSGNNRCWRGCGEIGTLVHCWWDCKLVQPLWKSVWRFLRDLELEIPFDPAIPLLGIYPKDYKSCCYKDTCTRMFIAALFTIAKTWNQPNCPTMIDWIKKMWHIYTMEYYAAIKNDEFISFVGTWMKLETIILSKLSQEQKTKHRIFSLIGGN

[6] = molecular target: HIV reverse transcriptase (Human immunodeficiency virus type 1 group M subtype B, UniProt P04585); details: cited from earlier work
[7] = test system: L1; assay: L1-EGFP vector assay in HEK293; type: cell-based, human; details: HEK293 with L1-EGFP vector, 20 μM, four days
Description: The reverse transcriptase inhibitors 3TC, d4T and Tenofovir disoproxil Fumarate (TDF), QA-2704, Combi-Blocks) were added to cell lines derived from human fetal kidney cells (HEK293) to a final concentration of 20 μM, and the cells were introduced with a vector (L1-EGFP, Macia et al. Genome Res 27, 335-348 (2017)) in which EGFP protein was expressed in only cells with activated L1. Four days after incubating, immunostaining was performed using antibodies against GFP and Hoechest, which stains nuclei, and images were taken using a fluorescence microscope (Leica AF600) with a 10× objective.

[8] = test system: MeCP2-KO mice; assay: Neurological symptom scoring in MeCP2-KO mice; type: in vivo; details: 2 mg/ml in drinking water starting at week 4, observed up to 10 weeks, vs vehicle
Description: Treatment with reverse transcription inhibitors was performed as follows.
(§1) MeCP2-KO mice (C57BL/6 background) were obtained from Mutant Mouse Resource & Research Centers (MMRRC) (Chen, RZ, Akbarian S, Tudor M and Jaenisch R. Nat Genet 27, 327-331 (2001)). All aspects of animal care and treatment were carried out according to the guidelines of the Experimental Animal Care Committee of Kyushu University.
Mice were maintained in a 12-hour light/dark cycle with free access to food and water. MeCP2-KO mice were divided into three groups of animals, each of which was administered with 3TC (QA-4615, Combi-blocks), d4T (d3580, Tokyo Chemical Industry Co., Ltd.) and vehicle. […]
Neurological symptoms of the mice were scored as described in Guy J, Gan J, Selfridge J, Cobb S and Bird A. Science 315, 1143-1147 (2007). In brief, the mice bred as described above were scored blind to genotype and treatment status, focusing on the six symptoms of mobility, gait, hindlimb clasping, tremor, breathing, and general condition. Each of the six symptoms was scored from 0 to 2:0 corresponds to symptom's being absent or the same as in the wild-type, 1 corresponds to symptom's being present, and 2 corresponds to severe symptom.
Six neurological symptoms scored in each of the three groups of the mice (vehicle, 15 mice; 3TC, 10 mice; d4T, 10 mice) were summed, and observed and recorded for up to 10 weeks.

[9] = test system: MeCP2-KO mice; assay: Survival of MeCP2-KO mice; type: in vivo; details: 2 mg/ml in drinking water starting at week 4, vs vehicle
Description: as §1
Mice were maintained in a 12-hour light/dark cycle with free access to food and water. MeCP2-KO mice were divided into three groups of animals, each of which was administered with 3TC (QA-4615, Combi-blocks), d4T (d3580, Tokyo Chemical Industry Co., Ltd.) and vehicle. The mice were orally administered with 3TC (2 mg/ml), d4T (2 mg/ml) and vehicle in drinking water, respectively, starting at week 4. As a control, the vehicle-treated MeCP2-KO mice were used. All mice were observed daily.
Next, the survival rate of the mice in each group (vehicle, 20 mice; 3TC, 13 mice; d4T, 13 mice) was examined.

For `Cc1ccnc2c1NC(=O)c1cccnc1N2C1CC1` [NVP, Nevirapine], the cell body area [1] was “this rescue was not seen”, the “number of branch points” value [1] was “this rescue was not seen” and the “co-localized puncta (synapse formation)” value [2] was “not seen”. For the same molecule, the “weighted mean firing rate” value [3] was “significantly decreased”, the cortical organoid diameter [4] was “not seen” and the “inhibitory activity for L1 reverse transcriptase” value [5] was “does not have any inhibitory activity; also recorded: not to have any L1 reverse transcriptase inhibitory activity”. The “inhibitory activity for HIV reverse transcriptase” value [6] was “has an HIV reverse transcriptase inhibitory activity”.
In the case of `CC(C)OC(=O)OCOP(=O)(CO[C@H](C)Cn1cnc2c(N)ncnc21)OCOC(=O)OC(C)C` [TDF, Tenofovir disoproxil Fumarate], the “percentage of EGFP-positive cells” value [7] is reported as “decrease”.
With `Cc1cn([C@H]2C=C[C@@H](CO)O2)c(=O)[nH]c1=O` [d4T, stavudine] the “Rett symptoms (summed score of six neurological symptoms)” value [8] was “Significant reductions”, the survival rate [9] was “Significant life extensions” and the “percentage of EGFP-positive cells” value [7] was “decrease”.
For `CC(C)Nc1cccnc1N1CCN(C(=O)c2cc3cc(NS(C)(=O)=O)ccc3[nH]2)CC1` [delavirdine], the “inhibitory activity for L1 reverse transcriptase” value [5] is listed as “have an inhibitory activity”.
In the case of `O=C1Nc2ccc(Cl)cc2[C@@](C#CC2CC2)(C(F)(F)F)O1` [efavirenz, Efavirenz], the “inhibitory activity for L1 reverse transcriptase” value [5] is listed as “have an inhibitory activity”.
